# From patent US20160120853A1, “TACROLIMUS AND ANALOGUES THEREOF FOR MEDICAL USE” (CHRONOS THERAPEUTICS LIMITED, priority 2013, published 2016)
# “Also recorded” adds a separate entry of the source.
# How the values were obtained:
# [1] = test system: worms; test: worm lifespan, strain not stated (close structural analogues, dosing frequency); type: in vivo; parameters: Healthspan / Median Lifespan / Max Lifespan: unit not given here; conditions: for ability to extend the lifespan of worms compared with tacrolimus: lifespan plots FIG. 7 / FIG. 8
# Source text: (§1) Worm cultures of at least 80 worms were manually assessed daily for the duration of the lifespan.
# [2] = test system: Osteoblast cells; test: response to oxidative stress of Osteoblast cells; type: cell-based
# [3] = test system: Bus5 worms; test: worm lifespan (Healthspan, Median lifespan) in Bus5 worms; type: in vivo; conditions: for Healthspan: Control 10.93; for Median Lifespan: Control 15.08
# Source text: as §1
# [4] = test system: TNF-α; test: blood TNF-α levels in healthy human volunteers after 0.3 mg capsule; type: in vivo; conditions: 0.3 mg oral capsule
# Description: (§2) One oral capsule as above containing 0.3 mg tacrolimus was administered to groups of healthy human volunteers. […] The average trough level of tacrolimus (level after 24 hours of administration of each dose) observed was approximately 220 pg/mL.
# [5] = blood / plasma metabolic biomarkers of aged rats after 6 m treatment; type: in vivo, rat
# Source text: A range of techniques has been used to determine the effect RDC5 has on levels of blood biomarkers of obesity and metabolic disorders.
# Metabolic biomarkers tested included: • Ketone Bodies—kinetic enzymatic • Free Fatty acids—ACS-ACOD Enzymatic • Glycerol—Calometric • Triglycerides—GPO-POD • HDL Cholesterol—CHO-PAP • LDL Cholesterol—Enzymatic • Total Cholesterol—CHO-PAP
# The RDC5 treated and control treated animals had their blood plasma profiled at the end of the investigations.
# [6] = aged rat study: weekly body weight and survival; type: in vivo
# Source text: Aged rats are known to increase in body weight dramatically in late adulthood. Aged rats were being used as a model in RAT_ND_01 and body weights and tissue samples were taken from the rats in this trial. Rats were 18 m of age at the start of the 6 m trial. The dosage is seen in FIG. 4.
# Throughout this study (i.e. from 18 months of age onwards), individual weekly body weight assessments were made for both the control and RDC5 treated group. […] At the 1 and 2 week time-points, before the onset of treatment, no significant difference between RDC5 and control treatment could be observed. Control treated rat body weight continued to increase over time from approximately 250 g to over 320 g at the 6 month time-point (at 24 months of age). […] Weight levels dropped initially however not below a healthy age (approx. 230 g) and remained constant (+/−20 g) for the remainder of the study.
# Fifty female Fischer rats initially aged 18 months were used in this study. Animals were housed at standard temperature (22±1° C.) in light controlled environment (lights on from 7 am to 8 pm) with ad libitum access to food and water with softer food introduced at 17 weeks to encourage food intake. Half the animals were treated with vehicle (5 ml/kg, s.c.) 6 days a week and half were treated with RDC5 (1 mg/kg, s.c.) 6 days a week. Individual body weights were recorded at baseline and then once a week until the end of the study.
# [7] = test system: Bus8 worms; test: worm lifespan (Healthspan, Median lifespan) in Bus8 background; type: in vivo; parameters: Healthspan: unit not given here; conditions: for Healthspan: Control 6.87; for Median Lifespan: Control 10.10
# Source text: as §1
# [8] = post mortem MRI scanning of aged rats, fat:lean ratio; type: in vivo, rat; conditions: for sub-cutaneous fat / visceral fat / fat within the body cavity: 24 month old rats, MRI, versus control treated
# Source text: FIG. 11 presents MIR data comparing 3 month old untreated animal, 24 month old control treated animal and 24 month old tacrolimus treated animal. […] This is consistent with a cosmetic improvement (with respect to reduction in sub-cutaneous fat) and a health improvement (with respect to reduction of fat near internal organs) produced by tacrolimus treatment. The MIR images are marked (areas 1) to show internal fat areas. The sub-cutaneous fat layer is the light grey outer ring only easily seen in the 24 month old untreated control.
# [9] = test system: S. Cerevisiae; test: yeast bioscreen, Chronological Lifespan Profile of ageing yeast cultures; type: cell-based
# Source text: The yeast bioscreen measures the Chronological Lifespan Profile of an ageing yeast cultures. The median lifespan is defined as the time at which 50% of a given population has died. Relative viability (expressed in the below chart) compares the effect of treatment on a cultures viability as a fraction of control vehicle treated cultures.
# RDC5 is thus believed to be able to delay ageing and the onset of age-related diseases such as unwanted fat accumulation.
# [10] = blood levels of tacrolimus after one 0.3 mg oral capsule in healthy human volunteers; type: in vivo
# Description: A hard gelatine capsule was filled with the following composition:
# as §2
# [11] = test system: C. elegans; test: lipid accumulation in worms, Oil-Red-O staining; type: in vivo; conditions: for age dependent increase in fat (lipid) accumulation: Oil-Red-O, versus DMSO control
# Source text: Tacrolimus is able to delay the age dependent increase in fat accumulation in C. elegans. Worms are a versatile model of obesity ref: (Zheng & Greenway, 2012)
# Oil-Red-O is a fat-soluble dye used for staining lipids and is quantified by colour light microscopy.
# [12] = FIG. 8 experiment, Control 10.4
# [13] = 6 m treatment in rats, versus control
# [14] = blood plasma at end of study, versus control treated
compound,measurement,setting,value
CC[C@@H]1/C=C(\C)C[C@H](C)C[C@H](OC)[C@H]2O[C@@](O)(C(=O)C(=O)N3CCCC[C@H]3C(=O)O[C@H](/C(C)=C/[C@@H]3CC[C@@H](O)[C@H](OC)C3)[C@H](C)[C@@H](O)CC1=O)[C@H](C)C[C@@H]2OC [Ascomycin],Healthspan,"[1]; FIG. 7 experiment, Control 3.0",4.1
same,Median Lifespan,"[1]; FIG. 7 experiment, Control 5.7",7.2
same,Max Lifespan,"[1]; FIG. 7 experiment, Control 8.7",10.6
same,ability to extend the lifespan of worms compared with tacrolimus,[1],as effectively as tacrolimus
CCC[C@@H]1/C=C(\C)C[C@H](C)C[C@H](OC)C2O[C@@](O)(C(=O)C(=O)N3CCCC[C@H]3C(=O)O[C@H](/C(C)=C/[C@@H]3CC[C@@H](O)[C@H](OC)C3)[C@H](C)[C@@H](O)CC1=O)[C@H](C)C[C@@H]2OC [Dihydrotacrolimus],Healthspan,"[1]; FIG. 8 experiment, Control 5.9",7.3
same,Median Lifespan,"[1]; FIG. 8 experiment, Control 8.1",10.3
same,Max Lifespan,[1]; [12],13.2
same,ability to extend the lifespan of worms compared with tacrolimus,[1],almost as effectively as tacrolimus
"C=CC[C@@H]1/C=C(\C)C[C@H](C)C[C@H](OC)[C@H]2O[C@@](O)(C(=O)C(=O)N3CCCC[C@H]3C(=O)O[C@H](/C(C)=C/[C@@H]3CC[C@@H](O)[C@H](OC)C3)[C@H](C)[C@@H](O)CC1=O)[C@H](C)C[C@@H]2OC [RDC5, tacrolimus]","shape of dose response, response to oxidative stress",[2],bell shaped dose response
same,Healthspan % increase wrt control,"[3]; Bus5, 1 ug/ml",33%
same,Median Lifespan % increase wrt control,"[3]; Bus5, 1 ug/ml",23%
same,Healthspan,"[3]; Bus5, 1 ug/ml",14.55
same,Median Lifespan,"[3]; Bus5, 1 ug/ml",18.54
same,Healthspan % increase wrt control,"[3]; Bus5, 10 ug/ml",23%
same,Median Lifespan % increase wrt control,"[3]; Bus5, 10 ug/ml",26%
same,Healthspan,"[3]; Bus5, 10 ug/ml",13.43
same,Median Lifespan,"[3]; Bus5, 10 ug/ml",19.03
same,Healthspan % increase wrt control,"[3]; Bus5, 40 ug/ml",−6%
same,Median Lifespan % increase wrt control,"[3]; Bus5, 40 ug/ml",0.5%
same,Healthspan,"[3]; Bus5, 40 ug/ml",10.28
same,Median Lifespan,"[3]; Bus5, 40 ug/ml",15.17
same,changes in blood TNF-α levels,[4],No significant changes
same,HDL,[5]; [13],significant reductions
same,LDL,[5]; [13],significant reductions
same,free fatty acids,[5]; [13],reduction is not statistically significant
same,glycerol,[5]; [13],reduction is not statistically significant
same,ketone bodies,[5]; [13],reduction is not statistically significant
same,total cholesterol,[5]; [13],significant reductions
same,triglycerides,[5]; [13],significant reductions; also recorded: beneficial reduction
same,reduction in lactate dehydrogenase levels,[5]; [14],50%
same,reduction in total cholesterol,[5]; [14],40%
same,age related weight gain,[6]; 1 mg/kg s.c. 6 days a week,did not show age related weight gain
same,survival of animals at the end of the study versus control,"[6]; 1 mg/kg s.c. 6 days a week, 6 months",No significant differences
same,lighter than control treated age-matched rats at end of study,"[6]; 6 month study, 24 months of age",28%
same,Healthspan % increase wrt control,"[7]; Bus8, 1 ug/ml",0.5%
same,Median Lifespan % increase wrt control,"[7]; Bus8, 1 ug/ml",7.5%
same,Healthspan,"[7]; Bus8, 1 ug/ml",6.90
same,Median Lifespan,"[7]; Bus8, 1 ug/ml",10.86
same,Healthspan % increase wrt control,"[7]; Bus8, 10 ug/ml",14%
same,Median Lifespan % increase wrt control,"[7]; Bus8, 10 ug/ml",20%
same,Healthspan,"[7]; Bus8, 10 ug/ml",7.85
same,Median Lifespan,"[7]; Bus8, 10 ug/ml",12.18
same,Healthspan % increase wrt control,"[7]; Bus8, 20 ug/ml",−9%
same,Median Lifespan % increase wrt control,"[7]; Bus8, 20 ug/ml",16%
same,Healthspan,"[7]; Bus8, 20 ug/ml",6.23
same,Median Lifespan,"[7]; Bus8, 20 ug/ml",11.70
same,Healthspan % increase wrt control,"[7]; Bus8, 40 ug/ml",−3%
same,Median Lifespan % increase wrt control,"[7]; Bus8, 40 ug/ml",16%
same,Healthspan,"[7]; Bus8, 40 ug/ml",6.67
same,Median Lifespan,"[7]; Bus8, 40 ug/ml",11.70
same,dose at which efficacy peaks for Median Lifespan extension,[7]; Bus8 worms,10 µg/mL
same,most efficacious dose at extending Healthspan,"[7]; Bus8 worms, doses tested 1, 10, 20, 40 ug/ml",10 µg/mL
same,Healthspan and Median lifespan of populations of worms,"[7]; cultures of at least 80 worms, assessed daily",able to extend
same,least effective dose,"[7]; dose response in worms, FIG. 9",40 µg/mL
same,sub-cutaneous fat,[8],less
same,visceral fat / fat within the body cavity,[8],less
same,sub-cutaneous fat,[8]; listed as tacrolimus,akin to the 3 month old untreated animal
same,visceral fat / fat within the body cavity,[8]; listed as tacrolimus,much less
same,average body fat,"[8]; rats at 24 months, control roughly 40%, 3 month rats roughly 20%",roughly 30%
same,Healthspan,"[1]; FIG. 7 experiment, Control 3.0, listed as RDC5 (Evita)",4.5
same,Healthspan,"[1]; FIG. 7 experiment, Control 3.0, listed as RDC5 (Sigma)",4.6
same,Median Lifespan,"[1]; FIG. 7 experiment, Control 5.7, listed as RDC5 (Evita)",7.1
same,Median Lifespan,"[1]; FIG. 7 experiment, Control 5.7, listed as RDC5 (Sigma)",7.8
same,Max Lifespan,"[1]; FIG. 7 experiment, Control 8.7, listed as RDC5 (Evita)",10.3
same,Max Lifespan,"[1]; FIG. 7 experiment, Control 8.7, listed as RDC5 (Sigma)",11.2
same,Healthspan,"[1]; FIG. 8 experiment, Control 5.9",7.8
same,Median Lifespan,"[1]; FIG. 8 experiment, Control 8.1",10.8
same,Max Lifespan,[1]; [12],13.8
same,lifespan compared to control,"[1]; dosing on one third of days, except when dosing not commenced early in lifespan",significant increases
same,lifespan compared to control,[1]; dosing on two thirds of days,significant increases
same,"shape of dose response, worm lifespan extension",[1]; in vivo,bell shaped dose response
same,effect on growth rate,[9]; S. Cerevisiae,without effecting growth rate
same,median lifespan of yeast cultures versus control treated cultures,[9]; S. Cerevisiae chronological lifespan,significantly longer
same,average peak level of tacrolimus,"[10]; 0.3 mg oral capsule, healthy volunteers",approximately 3700 pg/mL
same,AUC(0-t),"[10]; human, blood, 0.3 mg oral capsule, healthy volunteers, read-out: average area under the curve AUC 0-t",~23.5 ng·h/mL
same,concentration at 24 h,"[10]; human, blood, 0.3 mg oral capsule, level after 24 hours of administration of each dose, healthy volunteers, read-out: average trough level of tacrolimus",~0.22 ng/mL
same,expected trough level,"[10]; two capsules, single dose of 0.6 mg",about 440 pg/mL
same,age dependent increase in fat (lipid) accumulation,[11],shallower rise
same,age dependent increase in fat (lipid) accumulation,[11]; listed as Tacrolimus,able to delay
same,time at which maximal lipid accumulation happens,"[11]; days post adulthood, DMSO control day 4",7 days
